Assay results from patent US20260183274A1, “PDK1 REGULATORY COMPOUND AND COMPOSITION CONTAINING THE SAME” (PROVIBIO CO., LTD., priority 2024, published 2026).
“Also recorded” adds a separate entry of the source. Blank lines part the entries; values can stand above or below the molecule they belong to.

Key:
[1] = biological target: T1, PDK1 (phosphoinositide-dependent kinase 1) (Homo sapiens, UniProt O15530); assay: PDK1 phosphorylation (pPDK1) by flow cytometry in SU-DHL-8 cells; assay type: cell-based; details: SU-DHL-8, 24 hours, vs control group, FIG. 3
T1 construct: endogenous in cells; host or cells: SU-DHL-8 (ATCC CRL-2961)
T1 sequence (O15530 1-556): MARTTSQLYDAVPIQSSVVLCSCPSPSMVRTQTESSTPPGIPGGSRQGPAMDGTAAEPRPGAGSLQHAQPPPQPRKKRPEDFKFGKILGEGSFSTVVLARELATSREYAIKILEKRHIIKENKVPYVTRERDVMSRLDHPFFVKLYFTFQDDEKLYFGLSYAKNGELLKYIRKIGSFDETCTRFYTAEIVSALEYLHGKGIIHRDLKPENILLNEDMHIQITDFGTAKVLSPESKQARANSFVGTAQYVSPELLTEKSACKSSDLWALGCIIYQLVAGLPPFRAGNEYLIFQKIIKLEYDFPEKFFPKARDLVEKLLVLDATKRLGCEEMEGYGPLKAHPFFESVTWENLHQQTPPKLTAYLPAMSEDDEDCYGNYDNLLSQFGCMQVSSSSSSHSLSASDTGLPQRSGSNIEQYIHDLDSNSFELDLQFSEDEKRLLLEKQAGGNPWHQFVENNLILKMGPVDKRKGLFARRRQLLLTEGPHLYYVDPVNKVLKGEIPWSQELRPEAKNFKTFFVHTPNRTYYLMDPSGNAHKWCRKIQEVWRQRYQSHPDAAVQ
Method: After stabilizing the cells, the compound of the present invention was added, and the cells were cultured for 24 hours.
After drug treatment, the cells were harvested, and the Fc receptor blocking process was performed. The cells were then fixed and permeabilized using the Intracellular Staining Kit (Cat. No. BD554715) from BD Biosciences. Subsequently, the intracellular pPDK1 was stained using the pPDK1-PE fluorescently labeled antibody (BD Biosciences).
Referring to the figure, the vertical axis represents the phosphorylation level of PDK1 (phospho-PDK1 expression level), and the horizontal axis denotes the concentration-dependent treatment conditions of each compound.

[2] = test system: Human Bladder cancer cell, T24; assay: Relative cell viability CCK-8, T24; assay type: cell-based; details: for Relative cell viability (%), T24: 48 hours
Method: (§1) Human-derived breast cancer cell line MCF-7, human-derived lung cancer cell line A549, human-derived colorectal cancer cell line HCT-116, human pancreatic cancer cell line AsPC-1, glioblastoma cell line A172, and melanoma cell line Malme-3M were obtained from the Korean Cell Bank. gastric cancer cell line SNU-719, and bladder cancer cell line T24 were cultured in RPMI-1640 medium containing 10% FBS.
(§2) Following stabilization, the cells were harvested using Trypsin-EDTA treatment, centrifuged at 1,200 rpm for 3 minutes, the supernatant was removed, and the cells were resuspended in the same medium. They were then seeded into a 96-well plate (Costar 96-well cell culture plate, Corning) at 100 μL per well, and the conditions were adjusted as indicated in Table 5.
(§3) The cells were cultured in a 5% CO2 incubator at 37° C. for 24 hours, and after stabilization of the cells, each plate was washed with 200 μL of PBS per well and treated with 50 μL of culture medium per well.
(§4) After that, 10 μL of CCK-8 was added to each well, and the plate was incubated again at 37° C. in a 5% CO2 incubator for 2 hours.
(§5) In other words, when the survival rate of untreated cells (DMSO) is set at 100%, the relative cell survival rate in each group treated with the drug at different concentrations is indicated.

[3] = test system: Human Head and Neck cancer, Fadu; assay: Relative cell viability CCK-8, Fadu; assay type: cell-based; details: Fadu cells, relative to untreated cells
Method: Human-derived head and neck cancer cell line Fadu and osteosarcoma cell line Saos-2 were cultured in MEM medium containing 10% FBS, 100 U/mL penicillin, and 100 μg/mL streptomycin.
as §2, §3, §4, §5

[4] = test system: Human Melanoma cancer cell, Malme-3M; assay: Relative cell viability CCK-8, Malme-3M; assay type: cell-based; details: 48 hours
Method: as §1, §2, §3, §4, §5

[5] = test system: Human multiple myeloma, KMS26; assay: Relative cell viability, KMS26; assay type: cell-based; details: KMS26 cells, relative to untreated cells
Method: as §4, §5

[6] = biological target: T2, PDK1 (Homo sapiens, UniProt O15530); assay: PDK1 kinase activity inhibition, IC50 (in vitro kinase assay, luminescence); assay type: biochemical; details: FIG. 4; read-out: IC50 for inhibiting PDK1 kinase activity
T2 construct: purchased Promega V9681
T2 sequence (O15530 1-556): T1 sequence (O15530 1-556)
Method: As shown in the table below, this invention establishes an in vitro kinase assay system to quantitatively evaluate PDK1 kinase activity inhibition, and utilizes this system to compare and analyze the activity of new PDK1 inhibitor candidate compounds.
Specifically, after reacting ATP (100 μM), substrate (PDKtide, 0.5 μg/μL), and PDK1 enzyme (30 ng) at a specific concentration, the difference in ATP consumption between the group treated with each candidate compound and the DMSO control group was measured using luciferase-based luminescence signals (RLU).
Additionally, enzyme kinetics analysis was performed to quantitatively analyze the effect of the compounds of the present invention on the enzymatic activity of PDK1 (3-Phosphoinositide-dependent protein kinase-1) and to confirm the inhibition pattern.
Prior to the analysis, the half-maximal inhibitory concentration (IC50) values of the compounds GO15F, GO86, and GO88 of the present invention for inhibiting PDK1 kinase activity were determined, and the results are shown in FIG. 4.

[7] = test system: Balb/c mice with induced pulmonary fibrosis; assay: Bleomycin-induced pulmonary fibrosis animal model; assay type: in vivo, mouse; details: vs BLM-treated group; for Collagen deposition (Masson's trichrome, Sirius red): FIG. 42; for Expression of α-SMA in lung tissue (IHC): FIG. 43
From the text: To evaluate the therapeutic efficacy of the compound according to the present invention against pulmonary fibrosis, an animal model of pulmonary fibrosis induced by bleomycin intratracheal administration was established.
For this purpose, 8-week-old male Balb/c mice were subjected to general anesthesia using an inhalation anesthetic (2-3% isoflurane in oxygen), followed by disinfection of the neck region, skin incision, and exposure of the trachea.
Bleomycin (Sigma-Aldrich, USA) was directly administered into the trachea at a concentration of 5 mg/kg in a solution of 100 μL.
Two days prior to Bleomycin administration, the compound of the present invention or the comparative drug was administered intraperitoneally at the specified concentration and dose, and the administration was continued once daily for a total of 14 days.
The experimental groups included Normal, Bleomycin alone (BLM), and BLM plus the compound of the present invention (BLM+GO88, 0.2 mg/kg).
Ten days later, the mice were euthanized humanely using carbon dioxide gas, the trachea was incised, and PBS was injected into the trachea to remove blood from the lungs.
The lung tissue washed with PBS was excised, fixed in 4% paraformaldehyde solution for 24 hours, and then paraffin blocks and tissue sections were prepared. The prepared sections were subjected to pathological analysis using H&E, Masson's trichrome, and Sirius red staining.
Additionally, immunohistochemical (IHC) staining was performed for α-SMA (α-smooth muscle actin), an indicator of lung fibroblast activation.

Structure (SMILES): Nc1ncccc1C(=O)NCCCCCCCCCCCCN1CCOCC1 [Compound 2, 2-Amino-N-(12-morpholin-4-yl-dodecyl)-nicotinamide]
Inhibition of PDK1 phosphorylation (phospho-PDK1 expression level) ([1]; listed as GO48): stronger PDK1 inhibition; also recorded: high inhibitory effects even at low concentrations

Structure (SMILES): Nc1ncccc1C(=O)NCCCCCCCCCCCCN1CCNCC1 [Compound 5, 2-Amino-N-(12-(piperazin-1-yl)dodecyl)-nicotinamide]
Relative cell viability (%), T24 ([2]; 1 μM, listed as GO78, 1 µM): 28.34%
Relative cell viability (%), T24 ([2]; 10 μM, listed as GO78, 10 µM): 30.42%
Relative cell viability (%), T24 ([2]; 30 μM, listed as GO78, 30 µM): 29.73%
Relative cell viability (%), T24 ([2]; 50 μM, listed as GO78, 50 µM): 29.32%
Relative cell viability (%) ([3]; 10 μM, listed as GO78, 10 µM): 6.63%
Relative cell viability (%) ([3]; 30 μM, listed as GO78, 30 µM): 4.93%
Relative cell viability (%) ([3]; 50 μM, listed as GO78, 50 µM): 0.99%
viability at 1 µM ([3]; Homo sapiens, FaDu, 1 μM): 4.18%

IC50 [6]: 11.3 nM
Structure (SMILES): CC1(C)CN(CCCCCCCCCCCCC(=O)Nc2nc(N)c3[nH]cnc3n2)CCO1 [Compound 11, 12-[4-(2,2-dimethylmorpholin-4-yl)]dodecyl-N-(6-aminopurine-2-yl) carboxamide]
Relative cell viability (%), Malme-3M ([4]; 1 μM): 44.06%
Relative cell viability (%), Malme-3M ([4]; 10 μM): 37.40%
Relative cell viability (%), Malme-3M ([4]; 30 μM): 36.80%
Relative cell viability (%), Malme-3M ([4]; 50 μM): 38.87%
Inhibition of PDK1 phosphorylation (phospho-PDK1 expression level) ([1]; listed as GO86): stronger PDK1 inhibition; also recorded: high inhibitory effects even at low concentrations
Relative cell viability (%) ([5]; 1 μM): 31.19%
Relative cell viability (%), T24 ([2]; 1 μM): 28.15%
Relative cell viability (%), T24 ([2]; 10 μM): 31.17%
Relative cell viability (%), T24 ([2]; 30 μM): 30.42%
Relative cell viability (%), T24 ([2]; 50 μM): 29.34%
Relative cell viability (%) ([3]; 1 μM): 2.08%
Relative cell viability (%) ([3]; 10 μM): 9.68%
Relative cell viability (%) ([3]; 30 μM): 8.51%
Relative cell viability (%) ([3]; 50 μM): 4.78%

IC50 [6]: 13 nM
Structure (SMILES): Nc1ncccc1C(=O)NCCCCCCCCCCCCN1CCNCC1 [Compound 14, 2-Amino-N-(12-(piperazin-1-yl)dodecyl)nicotinamide]
viability at 1 µM ([4]; Homo sapiens, Malme-3M, 1 μM): 43.7%
viability at 10 µM ([4]; Homo sapiens, Malme-3M, 10 μM): 31.2%
viability at 30 µM ([4]; Homo sapiens, Malme-3M, 30 μM): 16.3%
viability at 50 µM ([4]; Homo sapiens, Malme-3M, 50 μM): 15.9%
Inhibition of PDK1 phosphorylation (phospho-PDK1 expression level) ([1]; listed as GO88): stronger PDK1 inhibition; also recorded: high inhibitory effects even at low concentrations
Collagen deposition (Masson's trichrome, Sirius red) [7]: significantly reduced
Expression of α-SMA in lung tissue (IHC) [7]: significantly suppressed
Relative cell viability (%), T24 ([2]; 1 μM, listed as GO88, 1 µM): 9.88%
Relative cell viability (%), T24 ([2]; 10 μM, listed as GO88, 10 µM): 11.01%
Relative cell viability (%), T24 ([2]; 30 μM, listed as GO88, 30 µM): 9.22%
Relative cell viability (%), T24 ([2]; 50 μM, listed as GO88, 50 µM): 7.47%
Relative cell viability (%) ([3]; 1 μM, listed as GO88, 1 µM): 7.05%
Relative cell viability (%) ([3]; 10 μM, listed as GO88, 10 µM): 73.25%
Relative cell viability (%) ([3]; 30 μM, listed as GO88, 30 µM): 57.64%
Relative cell viability (%) ([3]; 50 μM, listed as GO88, 50 µM): 7.08%

Structure (SMILES): Nc1nc(NC(=O)CCCCCCCCCCCCN2CCN(CCO)CC2)nc2nc[nH]c12 [Compound 15, 12-[4-(2-hydroxyethyl)piperazin-1-yl]dodecyl-N-(6-aminopurine-2-yl) carboxamide]
viability at 1 µM ([2]; Homo sapiens, 48 h, 1 μM): 7.92%
viability at 10 µM ([2]; Homo sapiens, 48 h, 10 μM): 9.29%
viability at 30 µM ([2]; Homo sapiens, 48 h, 30 μM): 9.57%
viability at 50 µM ([2]; Homo sapiens, 48 h, 50 μM): 8.75%
viability at 1 µM ([3]; Homo sapiens, FaDu, 1 μM): 4.15%
viability at 10 µM ([3]; Homo sapiens, FaDu, 10 μM): 29.3%
viability at 30 µM ([3]; Homo sapiens, FaDu, 30 μM): 41.5%
viability at 50 µM ([3]; Homo sapiens, FaDu, 50 μM): 9.44%

Structure (SMILES): Nc1ncccc1C(=O)NCCCCCCCCCCCCF [Compound 57, 2-Amino-N-(12-fluoro-dodecyl)-nicotinamide]
Inhibition of PDK1 phosphorylation (phospho-PDK1 expression level) [1]: exhibited an inhibitory effect on PDK1 phosphorylation
Collagen deposition (Masson's trichrome, Sirius red) [7]: significantly reduced
Expression of α-SMA in lung tissue (IHC) [7]: significantly suppressed
viability at 10 µM ([5]; Homo sapiens, KMS-26, 10 μM): 44.4%
viability at 30 µM ([5]; Homo sapiens, KMS-26, 30 μM): 43.1%
IC50 [6]: 380 nM
